Positions of bridges follow the written chain, without caps; N, C: chain ends. Residues, ends and D or L forms follow the SMILES beside them.
Assays:
[1] = test system: serum calcium concentration; assay: Biological assay of calcitonin analogs in vivo: reduction of serum calcium concentration, 2x2 parallel line assay; parameters: species or system Rats
Procedure: The biological potency of des-2-serine, 3-asparagine-salmon calcitonin was determined by comparing the reduction of serum calcium concentration which followed administration by graded doses of des-Ser^2, […] -SCT and synthetic salmon calcitonin standard. Rats were divided into four groups of seven animals, and each group was assigned at random to a dose of standard or test solution. Low and high doses were chosen from the linear portion of the dose-response curve. For the salmon calcitonin standard, the values were 0.7 and 2.1 ng. peptide/100 g. body weight (BW). This dose approximates 3 and 9 MU/100 g. BW. Peptides were given by subcutaneous injection (0.2 ml/100 g. BW) and blood was withdrawn 1 hour later for serum calcium determination. Sera are processed and analyzed within two hours of collection. […]. Results were analyzed by a 2×2 parallel line assay [Gaddum, J. H. J. Pharm. Pharmacol., 6, 345 (1953)]. The standard salmon calcitonin used was independently determined to contain greater than 4,000 IU/mg. des-Ser^2, Asn^3 -SCT assayed at 4350 IU/mg.

[2] = literature value, Monikawa et al.; cited from earlier work

For `CC(C)C[C@H](NC(=O)[C@H](CCCCN)NC(=O)CNC(=O)[C@H](CC(C)C)NC(=O)[C@@H](NC(=O)[C@@H]1CSSC[C@H](N)C(=O)N[C@@H](CC(C)C)C(=O)N[C@@H](CO)C(=O)N[C@@H]([C@@H](C)O)C(=O)N1)C(C)C)C(=O)N[C@@H](CO)C(=O)N[C@@H](CCC(N)=O)C(=O)N[C@@H](CCC(=O)O)C(=O)N[C@@H](CC(C)C)C(=O)N[C@@H](Cc1c[nH]cn1)C(=O)N[C@@H](CCCCN)C(=O)N[C@@H](CC(C)C)C(=O)N[C@@H](CCC(N)=O)C(=O)N[C@H](C(=O)N[C@@H](Cc1ccc(O)cc1)C(=O)N1CCC[C@H]1C(=O)N[C@@H](CCCNC(=N)N)C(=O)N[C@H](C(=O)N[C@@H](CC(N)=O)C(=O)N[C@H](C(=O)NCC(=O)N[C@@H](CO)C(=O)NCC(=O)N[C@H](C(=O)N1CCC[C@H]1C(N)=O)[C@@H](C)O)[C@@H](C)O)[C@@H](C)O)[C@@H](C)O` [des-Ser^2, Asn^3 -SCT, des-2-serine, 3-asparagine-salmon calcitonin] (H-CLSTCVLGKLSQELHKLQTYPRTNTGSGTP-NH2; disulfide 1-5), the “biological potency (reduction of serum calcium concentration)” value ([1]; rats, subcutaneous injection, blood withdrawn 1 hour later, vs synthetic salmon calcitonin standard) was 4350 IU/mg.
For `CC(C)C[C@H](NC(=O)[C@H](CCCCN)NC(=O)CNC(=O)[C@H](CC(C)C)NC(=O)[C@@H](NC(=O)[C@@H]1CSSC[C@H](N)C(=O)N[C@@H](CO)C(=O)N[C@@H](CC(N)=O)C(=O)N[C@@H](CC(C)C)C(=O)N[C@@H](CO)C(=O)N[C@@H]([C@@H](C)O)C(=O)N1)C(C)C)C(=O)N[C@@H](CO)C(=O)N[C@@H](CCC(N)=O)C(=O)N[C@@H](CCC(=O)O)C(=O)N[C@@H](CC(C)C)C(=O)N[C@@H](Cc1c[nH]cn1)C(=O)N[C@@H](CCCCN)C(=O)N[C@@H](CC(C)C)C(=O)N[C@@H](CCC(N)=O)C(=O)N[C@H](C(=O)N[C@@H](Cc1ccc(O)cc1)C(=O)N1CCC[C@H]1C(=O)N[C@@H](CCCNC(=N)N)C(=O)N[C@H](C(=O)N[C@@H](CC(N)=O)C(=O)N[C@H](C(=O)NCC(=O)N[C@@H](CO)C(=O)NCC(=O)N[C@H](C(=O)N1CCC[C@H]1C(N)=O)[C@@H](C)O)[C@@H](C)O)[C@@H](C)O)[C@@H](C)O` [standard salmon calcitonin, Salmon calcitonin], the “potency of the standard salmon calcitonin, independently determined” value ([1]; standard used in the assay, independently determined) was “greater than 4,000 IU/mg”.
In the case of “(1,7-α-L-amino-suberic acid)eel calcitonin”, the hypocalcemic potency [2] is listed as “about 3400 IU/mg”.
In the case of “eel calcitonin [synthetic eel calcitonin]”, the hypocalcemic potency [2] is listed as “around 4300 IU/mg”.
